Measurements as given in US20190374158A1, “SYSTEM AND METHOD FOR MONITORING AND CONTROLLING A STATE OF A PATIENT DURING AND AFTER ADMINISTRATION OF […]” (The General Hospital Corporation, priority 2012, published 2019).

What was measured:
[1] = two-compartment pharmacokinetics model estimation, rat models; parameters: species or system rats; conditions: for σ scaling factor of infusion rate: rat two-compartment model; for K12 rate constant: rat two-compartment model fit to Vijn and Sneyd BSR time courses after 10-second bolus (8 mg kg^−1 propofol, 3.5 mg kg^−1 etomidate)
Description: In one clinical application, the control target may be to achieve and maintain a target BSR corresponding to medical coma, thereby maintaining an equilibrium effect-site concentration. To design a suitable but not overly-complex model, it may be assumed that, due to the time lag between central compartment drug infusion and effect-site concentration increase, there must be at least two compartments to accurately model the evolution of the drug concentrations. Such a simplified two-compartment model is composed of the central plasma compartment and the auxiliary effect-site compartment connected by a first-order transfer process, ignoring any other peripheral drug distribution compartments.
The pharmacokinetic model in FIG. 9A can be described by the second-order linear differential equation system: […]
for an infusion rate of ut, in units of μg/s, scaled by a factor of σ. The kinetic rate constants k12 and k21 govern the drug flow between compartments, while the rate constant k10 determines the rate of the drug's clearance from the central compartment. The slow peripheral compartment and fast peripheral compartment, common in many population models, are not included.
These estimated parameters were used to design the closed-loop controller (see below) in order to yield a critically damped system response, that is, the fastest rise times without overshoot.
For the human models, existing population pharmacokinetic models were calibrated for a 180-cm, 70-kg person. […] Since a patient may not enter a state of burst suppression the instant the effect-site concentration is nonzero, the concentration trace was shifted negatively and transformed to pt such that the patient peaked at a BSP of 0.7, and came out of burst suppression 7 minutes after the initiation of the dose. […] Anesthesiology 65: 19-27, which is incorporated herein by reference, was used to numerically evaluate the effect-site concentration during and after a 10-second bolus of […].
Matlab's Optimization Toolbox was used to optimize these four parameters of the pharmacokinetic model to minimize this mean squared error, and yield an estimate of the best-fit rate constants and scaling factor.

[2] = tested on: burst suppression; conditions: patient after propofol bolus induction
Description: Typically, in the operating room, a bolus dose of an anesthetic is rapidly administered to induce general anesthesia. It is often the case that the patient enters burst suppression within seconds and might remain in that state for several minutes. Since the efficiency of the drug depends on several empirical factors, it is relevant to monitor the level of suppression that is reached and its trajectory, which may help detect any anomaly, or tune the subsequent doses or levels of anesthesia.
The EEG was recorded from a scalp electrode at the FP1 site referenced to the FZ electrode of the standard electrode configuration. […] The choice of Δ=250 corresponds to a resolution of one second as in the previous case.

[3] = tested on: alpha (8-13 Hz) power
Description: 14 patients were implanted with iEEG electrode arrays as part of standard clinical treatment for intractable epilepsy. The arrays included linear penetrating depth arrays having 6-8 electrodes, subdural grid arrays having 16-64 electrodes, and/or subdural strip arrays having 4-16 electrodes (Adtech Medical, Racine, Wis.) (FIG. 21). Surface EEG electrodes were additionally applied to six patients in a subset of the standard 10-20 EEG configuration. Electrode placement was selected by the patients' clinicians without regard to the current study. […] Recordings were obtained during electrode explant surgery that occurred after 1-3 weeks of inpatient monitoring to determine epileptogenic foci. Signal acquisition began prior to induction of general anesthesia and continued until the electrodes were disconnected for explant. EEG and iEEG signals were recorded with a sampling rate of a 2000, 500, or 250 Hz depending on settings of the hospital's clinical acquisition system. Signals were digitized with hardware amplifiers (XLTEK, Natus Medical, Inc., San Carlos, Calif.) that bandpassed between 0.3 Hz and the sampling rate, and were stored on a computer (Dell) for offline processing.
Drug protocols were selected by the patients' clinicians without regard to the current study.
Patients were delivered auditory stimuli through headphones (prerecorded words and the patient's name) approximately every 4 seconds during the task, and were instructed to respond with a button click. Responses were recorded using stimulus presentation software (Presentation, Neurobehavioral Systems, Inc., Albany, Calif., or EPrime, Psychology Software Tools, Inc., Sharpsburg, Pa.). […] This patient was excluded from group analyses of peri-LOC dynamics.
In each subject, two epochs were distinguished over the recording period. […] We used visual inspection to identify the postinduction epoch. […] Burst suppression intervals were excluded to avoid the confound of low-power suppression intervals in group analyses, which differed in total time across patients. […]

[4] = tested on: dopaminergic arousal pathway; conditions: cited from earlier work
[5] = tested on: burst suppression; experiment: physostigmine effect on stable burst suppression, rat EEG; assay type: in vivo, Sprague-Dawley rat; conditions: rat deeply anesthetized with 2% isoflurane
Description: The following description is with respect to an analysis of a rat under general anesthesia-induced burst suppression The BSP is compared to the BSR in order to illustrate its benefits. For the experiments described herein, signals were first band pass filtered between 5 and 30 Hz. The filtered signals were thresholded and suppression segments less than 500 milliseconds in duration were switched to 1. The binary series was then provided as an input to the BSP algorithm.
The BSP algorithm was evaluated on a rat EEG signal recorded to test whether physostigmine, a cholinergic agonist hypothesized to increase arousal, causes the burst suppression pattern observed during deep anesthesia to switch into continuous activity (associated with increased arousal). In this experiment, it is advantageous to know whether physostigmine, and not saline (control), induces a shift from burst suppression (deep anesthesia) to a delta wave pattern (lighter anesthesia). In case it does, it is desirable characterize the temporal dynamics of that change.
A rat pre-implanted with extradural EEG electrodes was deeply anesthetized with 2% isoflurane. After stabilization of the inhaled concentration, the EEG signal, was recorded for 10 minutes prior to a saline intravenous injection (control). Six minutes later, physostigmine was injected and the recording was maintained for an additional thirty minutes. […]

[6] = rat two-compartment model fit to Vijn and Sneyd BSR time courses after 10-second bolus

## CCOC(=O)c1cncn1[C@H](C)c1ccccc1 [Etomidate]
[1]
  σ scaling factor of infusion rate: 0.8394
  K12 rate constant: 0.01547 min⁻¹
[1]; [6]
  K21 rate constant: 0.6703 min⁻¹

## CC(C)c1cccc(C(C)C)c1O [Propofol, 2,6-di-isopropylphenol]
[2]
  BSP reached after slow second increase: around 0.7
  BSP, binary filter estimate, at minute 2: around 0.5
  BSP, binary filter estimate, decrease after minute 2: around 0.2
  BSP, smoother estimate, at minute 2: ~0.6
  BSP, smoother estimate, decrease after minute 2: ~0.1
  duration of burst suppression: about 8 minutes
[3]; Patient 9, occipital and temporal channels
  time after LOC to abrupt suppression of alpha power: ≤ 10 s
[3]; hippocampus, cingulate cortex, medial white matter electrodes
  increase of median alpha power in the postinduction period: approximately 5 dB
[3]; occipital, parietal, inferotemporal cortex and primary auditory cortex
  change of alpha power in the postinduction period: consistently decreased
[1]
  σ scaling factor of infusion rate: 0.5885
  K12 rate constant: 0.01557 min⁻¹
[1]; [6]
  K10 rate constant (clearance from central compartment): 4.552 min⁻¹
  K21 rate constant: 0.9599 min⁻¹

## COC(=O)C(c1ccccc1)C1CCCCN1 (centres unmarked) [methylphenidate]
[4]; isoflurane general anesthesia
  emergence from general anesthesia: actively induces emergence from isoflurane general anesthesia
[4]; plethysmography and blood gas experiments
  minute ventilation: increases minute ventilation

## CNC(=O)Oc1ccc2c(c1)[C@]1(C)CCN(C)[C@@H]1N2C [physostigmine]
[5]
  time out of suppression after injection: around 10 minutes
[5]; baseline BSP around 0.5
  BSP after injection: 0
